Measurements as given in PubChem BioAssay AID1963975 (Molecular Pharmacology Branch, DTP, NCI, 2024).
Blank lines part the entries; values can stand above or below the molecule they belong to.

System: 624824-186-R-J2-PDC multicell spheroids, viability
Experiment: Anticancer human tumor 624824-186-R-J2-PDC patient-derived colon adenocarcinoma cell line growth inhibition [PI3K]
Details: for IC50: curve of first compound; for viability, T/C: stronger effect = lower value
Summary of the method: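 Stroma-containing spheroids: tumor line, pooled-donor HUVEC, hMSC. Treatments: targeted agents with PI3K inhibitors. Dosing: clinically relevant, half-log spacing, 10 microM ceiling without known Cmax. Read-out: cell viability.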

[1] = second compound 0.0316 µM, first compound 0.0316 µM
[2] = second compound 0.0316 µM, first compound 0.1 µM
[3] = second compound 0.0316 µM, first compound 0.316 µM
[4] = second compound 0.0316 µM, first compound 1 µM
[5] = second compound 0.0316 µM, first compound 3.16 µM
[6] = second compound 0.0316 µM, first compound 10 µM
[7] = second compound 0.1 µM, first compound 0.0316 µM
[8] = second compound 0.1 µM, first compound 0.1 µM
[9] = second compound 0.1 µM, first compound 0.316 µM
[10] = second compound 0.1 µM, first compound 1 µM
[11] = second compound 0.1 µM, first compound 3.16 µM
[12] = second compound 0.1 µM, first compound 10 µM
[13] = second compound 0.316 µM, first compound 0.0316 µM
[14] = second compound 0.316 µM, first compound 0.1 µM
[15] = second compound 0.316 µM, first compound 0.316 µM
[16] = second compound 0.316 µM, first compound 1 µM
[17] = second compound 0.316 µM, first compound 3.16 µM
[18] = second compound 0.316 µM, first compound 10 µM
[19] = second compound 1 µM, first compound 0.0316 µM
[20] = second compound 1 µM, first compound 0.1 µM
[21] = second compound 1 µM, first compound 0.316 µM
[22] = second compound 1 µM, first compound 1 µM
[23] = second compound 1 µM, first compound 3.16 µM
[24] = second compound 1 µM, first compound 10 µM
[25] = second compound 3.16 µM, first compound 0.0316 µM
[26] = second compound 3.16 µM, first compound 0.1 µM
[27] = second compound 3.16 µM, first compound 0.316 µM
[28] = second compound 3.16 µM, first compound 1 µM
[29] = second compound 3.16 µM, first compound 3.16 µM
[30] = second compound 3.16 µM, first compound 10 µM
[31] = second compound 10 µM, first compound 0.0316 µM
[32] = second compound 10 µM, first compound 0.1 µM
[33] = second compound 10 µM, first compound 0.316 µM
[34] = second compound 10 µM, first compound 1 µM
[35] = second compound 10 µM, first compound 3.16 µM
[36] = second compound 10 µM, first compound 10 µM
[37] = second compound 0.0316 µM, first compound 0.000316 µM
[38] = second compound 0.0316 µM, first compound 0.001 µM
[39] = second compound 0.0316 µM, first compound 0.00316 µM
[40] = second compound 0.0316 µM, first compound 0.01 µM
[41] = second compound 0.1 µM, first compound 0.000316 µM
[42] = second compound 0.1 µM, first compound 0.001 µM
[43] = second compound 0.1 µM, first compound 0.00316 µM
[44] = second compound 0.1 µM, first compound 0.01 µM
[45] = second compound 0.316 µM, first compound 0.000316 µM
[46] = second compound 0.316 µM, first compound 0.001 µM
[47] = second compound 0.316 µM, first compound 0.00316 µM
[48] = second compound 0.316 µM, first compound 0.01 µM
[49] = second compound 1 µM, first compound 0.000316 µM
[50] = second compound 1 µM, first compound 0.001 µM
[51] = second compound 1 µM, first compound 0.00316 µM
[52] = second compound 1 µM, first compound 0.01 µM
[53] = second compound 3.16 µM, first compound 0.000316 µM
[54] = second compound 3.16 µM, first compound 0.001 µM
[55] = second compound 3.16 µM, first compound 0.00316 µM
[56] = second compound 3.16 µM, first compound 0.01 µM
[57] = second compound 10 µM, first compound 0.000316 µM
[58] = second compound 10 µM, first compound 0.001 µM
[59] = second compound 10 µM, first compound 0.00316 µM
[60] = second compound 10 µM, first compound 0.01 µM
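Further: spheroids exposed to agents for 7 days before viability read.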
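Wherever viability, T/C is given: 100% = DMSO vehicle treated spheroids.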

IC50 (second compound 0.0316 µM): > 10 µM
IC50 (second compound 0.1 µM): > 10 µM
IC50 (second compound 0.316 µM): > 10 µM
IC50 (second compound 1 µM): > 10 µM
IC50 (second compound 3.16 µM): > 10 µM
IC50 (second compound 10 µM): > 10 µM
Compound: CC(C)NCC(C(=O)N1CCN(c2ncnc3c2C(C)CC3O)CC1)c1ccc(Cl)cc1 (stereo not given) + CC(Nc1ncnc2nc[nH]c12)c1cc2cccc(Cl)c2c(=O)n1-c1ccccc1
viability, T/C [1]: 86.1%
viability, T/C [2]: 87.8%
viability, T/C [3]: 75.5%
viability, T/C [4]: 89.6%
viability, T/C [5]: 88.4%
viability, T/C [6]: 89.4%
viability, T/C [7]: 111%
viability, T/C [8]: 84.9%
viability, T/C [9]: 88.4%
viability, T/C [10]: 82.2%
viability, T/C [11]: 85%
viability, T/C [12]: 86.6%
viability, T/C [13]: 112%
viability, T/C [14]: 113%
viability, T/C [15]: 71.3%
viability, T/C [16]: 95.6%
viability, T/C [17]: 81%
viability, T/C [18]: 74.7%
viability, T/C [19]: 106%
viability, T/C [20]: 96.2%
viability, T/C [21]: 99.4%
viability, T/C [22]: 85%
viability, T/C [23]: 90.8%
viability, T/C [24]: 89.3%
viability, T/C [25]: 85.6%
viability, T/C [26]: 104%
viability, T/C [27]: 100%
viability, T/C [28]: 82.1%
viability, T/C [29]: 88.1%
viability, T/C [30]: 87.2%
viability, T/C [31]: 98.7%
viability, T/C [32]: 108%
viability, T/C [33]: 103%
viability, T/C [34]: 88.1%
viability, T/C [35]: 75.5%
viability, T/C [36]: 71.4%

IC50 (second compound 0.0316 µM): > 0.1 µM
IC50 (second compound 0.1 µM): > 0.1 µM
IC50 (second compound 0.316 µM): > 0.1 µM
IC50 (second compound 1 µM): > 0.1 µM
IC50 (second compound 3.16 µM): > 0.1 µM
IC50 (second compound 10 µM): > 0.1 µM
Compound: CC(C)n1nc(-c2ccc3oc(N)nc3c2)c2c(N)ncnc21 + CC(Nc1ncnc2nc[nH]c12)c1cc2cccc(Cl)c2c(=O)n1-c1ccccc1
viability, T/C [37]: 108%
viability, T/C [38]: 113%
viability, T/C [39]: 83%
viability, T/C [40]: 76.7%
viability, T/C [1]: 75.7%
viability, T/C [2]: 77.9%
viability, T/C [41]: 94.3%
viability, T/C [42]: 81.9%
viability, T/C [43]: 105%
viability, T/C [44]: 85.8%
viability, T/C [7]: 81.5%
viability, T/C [8]: 75.2%
viability, T/C [45]: 87.5%
viability, T/C [46]: 77.3%
viability, T/C [47]: 73.6%
viability, T/C [48]: 83.3%
viability, T/C [13]: 86.8%
viability, T/C [14]: 75.8%
viability, T/C [49]: 93.2%
viability, T/C [50]: 99%
viability, T/C [51]: 91.6%
viability, T/C [52]: 79.2%
viability, T/C [19]: 84.8%
viability, T/C [20]: 90.6%
viability, T/C [53]: 101%
viability, T/C [54]: 90.5%
viability, T/C [55]: 82.3%
viability, T/C [56]: 90.5%
viability, T/C [25]: 87.7%
viability, T/C [26]: 78.2%
viability, T/C [57]: 109%
viability, T/C [58]: 96.7%
viability, T/C [59]: 82.7%
viability, T/C [60]: 95.5%
viability, T/C [31]: 81.2%
viability, T/C [32]: 78.6%

IC50 (second compound 0.0316 µM): > 10 µM
IC50 (second compound 0.1 µM): > 10 µM
IC50 (second compound 0.316 µM): > 10 µM
IC50 (second compound 1 µM): > 10 µM
IC50 (second compound 3.16 µM): > 10 µM
IC50 (second compound 10 µM): > 10 µM
Compound: CC1(C)CCC(CN2CCN(c3ccc(C(=O)NS(=O)(=O)c4ccc(NCC5CCOCC5)c([N+](=O)[O-])c4)c(Oc4cnc5[nH]ccc5c4)c3)CC2)=C(c2ccc(Cl)cc2)C1 + CC(Nc1ncnc2nc[nH]c12)c1cc2cccc(Cl)c2c(=O)n1-c1ccccc1
viability, T/C [1]: 89.4%
viability, T/C [2]: 98.6%
viability, T/C [3]: 77.3%
viability, T/C [4]: 81.7%
viability, T/C [5]: 71.6%
viability, T/C [6]: 58.4%
viability, T/C [7]: 103%
viability, T/C [8]: 90.7%
viability, T/C [9]: 91.1%
viability, T/C [10]: 67.6%
viability, T/C [11]: 67.2%
viability, T/C [12]: 58.2%
viability, T/C [13]: 88.3%
viability, T/C [14]: 90.7%
viability, T/C [15]: 68.4%
viability, T/C [16]: 79.2%
viability, T/C [17]: 63.1%
viability, T/C [18]: 79%
viability, T/C [19]: 86.3%
viability, T/C [20]: 92.3%
viability, T/C [21]: 80.2%
viability, T/C [22]: 66.5%
viability, T/C [23]: 77%
viability, T/C [24]: 80.4%
viability, T/C [25]: 88.5%
viability, T/C [26]: 106%
viability, T/C [27]: 73%
viability, T/C [28]: 78.9%
viability, T/C [29]: 86%
viability, T/C [30]: 106%
viability, T/C [31]: 103%
viability, T/C [32]: 102%
viability, T/C [33]: 108%
viability, T/C [34]: 82.2%
viability, T/C [35]: 92.2%
viability, T/C [36]: 87%

IC50 (second compound 0.0316 µM): > 10 µM
IC50 (second compound 0.1 µM): > 10 µM
IC50 (second compound 0.316 µM): > 10 µM
IC50 (second compound 1 µM): > 10 µM
IC50 (second compound 3.16 µM): > 10 µM
IC50 (second compound 10 µM): > 10 µM
Compound: C[C@@H](NC(=O)c1ncnc(N)c1Cl)c1ncc(C(=O)Nc2cc(C(F)(F)F)c(Cl)cn2)s1 + CC(Nc1ncnc2nc[nH]c12)c1cc2cccc(Cl)c2c(=O)n1-c1ccccc1
viability, T/C [1]: 94%
viability, T/C [2]: 106%
viability, T/C [3]: 78.6%
viability, T/C [4]: 69.9%
viability, T/C [5]: 55.4%
viability, T/C [6]: 67.2%
viability, T/C [7]: 85.3%
viability, T/C [8]: 82.3%
viability, T/C [9]: 81.1%
viability, T/C [10]: 67.7%
viability, T/C [11]: 57%
viability, T/C [12]: 56%
viability, T/C [13]: 100%
viability, T/C [14]: 99.3%
viability, T/C [15]: 89.8%
viability, T/C [16]: 65.4%
viability, T/C [17]: 55.9%
viability, T/C [18]: 58%
viability, T/C [19]: 110%
viability, T/C [20]: 85.6%
viability, T/C [21]: 87.3%
viability, T/C [22]: 63.1%
viability, T/C [23]: 55%
viability, T/C [24]: 54.1%
viability, T/C [25]: 94.5%
viability, T/C [26]: 93.9%
viability, T/C [27]: 65.4%
viability, T/C [28]: 65.6%
viability, T/C [29]: 54.7%
viability, T/C [30]: 59.6%
viability, T/C [31]: 95.9%
viability, T/C [32]: 92%
viability, T/C [33]: 99.9%
viability, T/C [34]: 77.2%
viability, T/C [35]: 65.7%
viability, T/C [36]: 57.8%

IC50 (second compound 0.0316 µM): > 0.1 µM
IC50 (second compound 0.1 µM): > 0.1 µM
IC50 (second compound 0.316 µM): > 0.1 µM
IC50 (second compound 1 µM): > 0.1 µM
IC50 (second compound 3.16 µM): > 0.1 µM
IC50 (second compound 10 µM): > 0.1 µM
Compound: Cn1ncnc1[C@H]1c2n[nH]c(=O)c3cc(F)cc(c23)N[C@@H]1c1ccc(F)cc1 + CC(Nc1ncnc2nc[nH]c12)c1cc2cccc(Cl)c2c(=O)n1-c1ccccc1
viability, T/C [37]: 82.5%
viability, T/C [38]: 85.3%
viability, T/C [39]: 87.6%
viability, T/C [40]: 89%
viability, T/C [1]: 75.7%
viability, T/C [2]: 86%
viability, T/C [41]: 94.6%
viability, T/C [42]: 85%
viability, T/C [43]: 89.5%
viability, T/C [44]: 94.1%
viability, T/C [7]: 82.8%
viability, T/C [8]: 103%
viability, T/C [45]: 115%
viability, T/C [46]: 102%
viability, T/C [47]: 96.5%
viability, T/C [48]: 87.5%
viability, T/C [13]: 110%
viability, T/C [14]: 86.2%
viability, T/C [49]: 72.6%
viability, T/C [50]: 90.8%
viability, T/C [51]: 81.7%
viability, T/C [52]: 89.4%
viability, T/C [19]: 81.4%
viability, T/C [20]: 97.8%
viability, T/C [53]: 91.1%
viability, T/C [54]: 94%
viability, T/C [55]: 94.2%
viability, T/C [56]: 92.1%
viability, T/C [25]: 83.5%
viability, T/C [26]: 78.1%
viability, T/C [57]: 88.5%
viability, T/C [58]: 85.6%
viability, T/C [59]: 106%
viability, T/C [60]: 106%
viability, T/C [31]: 100%
viability, T/C [32]: 88.4%
